The test system of one data set is C. albicans ATCC MYA-573. The data set is described as follows: Antifungal activity (GI80), growth inhibition in YPD20 medium by absorbance at 600 nm. In kind it is cell-based. Conditions: Candida albicans, minimum concentration for at least 80% cell growth inhibition, 37° C., absorbance 600 nm, read-out: GI80 (μg/ml) C. albicans ATCC MYA-573. How it is done: (§1) The antifungal activity of the compounds of the invention was determined according to the method mentioned below.
(§2) An YPD20 medium (1% yeast extract, 2% peptone, 20% glucose) was used,
(§3) (2) Preparation of Cell Liquid for Inoculation:
(§4) Cells incubated overnight with Sabouraud dextrose agar at 30° C. were suspended in 0.1% Tween 80-added saline, and then added to a concentrated medium (1.33% yeast extract, 2.67% peptone, 13.33% glucose) so that the final cell concentration could be 5×10^3 cells/ml, thereby preparing a cell liquid for inoculation.
(§5) (3) Production of Chemical Dilution Plate:
(§6) A metered sample was dissolved in dimethyl sulfoxide, and a 2-fold dilution series was prepared using dimethyl sulfoxide. A chemical dilution of 2 μl each was added to a flat-bottom 96-well plate with 40% glucose (48 μl) put in each well, thereby producing a chemical dilution plate.
(§7) (4) Inoculation and Cultivation of Cell Liquid:
(§8) The cell liquid (150 μl) prepared in (2) was added to the chemical dilution plate produced in (3), followed by aerobic static cultivation at 37° C.
(§9) (5) Determination of Antifungal Activity (GI80 Value):
(§10) After cultivation for […], the plate was stirred, and its absorbance (600 nm) was measured. Based on the absorbance as the index, the minimum chemical concentration for at least 80% cell growth inhibition relative to the cell growth in the chemical-free well was computed as a GI80 value.

In a further data set the test system is C. albicans ATCC90028. The data set is described as above. In kind it is cell-based. The conditions noted are these: Candida albicans, ATCC90028, minimum concentration for at least 80% cell growth inhibition, 37° C., absorbance 600 nm, read-out: GI80 (μg/ml) C. albicans ATCC90028. The method, then: as §1, §2, §3, §4, §5, §6, §7, §8, §9, §10
The next data set concerns C. glabrata ATCC48435. The description is as above. In kind it is cell-based. The conditions noted are these: Nakaseomyces glabratus, ATCC48435, minimum concentration for at least 80% cell growth inhibition, 37° C., absorbance 600 nm, read-out: GI80 (μg/ml) C. glabrata ATCC48435. How it is done:
as §1, §2, §3, §4, §5, §6, §7, §8, §9, §10

Values after ≈ are worked out from the molar mass of the structure shown.

Usually melting point stands for the temperature, or range, at which the solid turns liquid. Regarding `Cc1c(-c2ccccc2)c(N2CC[C@H](N(C)C)C2)c2oc(C(C)(C)C)nc2c1C#N.Cl` [Example 1, 2-tert-Butyl-7-[(3S)-3-(dimethylamino)pyrrolidin-1-yl]-5-methyl-6-phenyl-1,3-benzoxazole-4-carbonitrile hydrochloride], the melting point was 198 to 201 °C (dec.). The IC80 in the data set with C. albicans ATCC MYA-573 stood at 0.063 µg/mL. Moreover, the IC80 with C. albicans ATCC90028 worked out at 0.063 µg/mL. The IC80 in the data set with C. glabrata ATCC48435 came to 0.032 µg/mL.
Turning to `CN[C@H]1CCN(c2c(-c3ccccc3)c(C)c(C#N)c3nc(C(C)(C)C)oc23)C1.Cl` [Example 2, 2-tert-Butyl-5-methyl-7-[(3S)-3-(methylamino)pyrrolidin-1-yl]-6-phenyl-1,3-benzoxazole-4-carbonitrile hydrochloride], the melting point was 237 to 240 °C (dec.). Moreover, in the data set with C. albicans ATCC MYA-573, the IC80 is 0.25 µg/mL. In the data set with C. albicans ATCC90028, the IC80 worked out at 0.5 µg/mL. The IC80 in the data set on C. glabrata ATCC48435 came out at 0.125 µg/mL.
For `Cc1c(-c2ccccc2)c(N2CCC(N(C)C)C2)c2oc(C(C)(C)CO)nc2c1C#N` (stereo not shown) [Example 14, 7-[3-(Dimethylamino)pyrrolidin-1-yl]-2-(2-hydroxy-1,1-dimethylethyl)-5-methyl-6-phenyl-1,3-benzoxazole-4-carbonitrile], in that order: 175 to 178 °C, 0.25 µg/mL (≈ 0.597 µM), 0.25 µg/mL (≈ 0.597 µM) and 0.125 µg/mL (≈ 0.299 µM).
In turn, `Cc1c(-c2cccn2C)c(N2CC[C@H](N(C)C)C2)c2oc(C3CC3)nc2c1C#N` [Example 22, 2-Cyclopropyl-7-[(3S)-3-(dimethylamino)pyrrolidin-1-yl]-5-methyl-6-(1-methyl-1H-pyrrol-2-yl)-1,3-benzoxazole-4-carbonitrile] displayed a melting point of 127 to 128 °C. In the data set on C. albicans ATCC MYA-573, the IC80 was 1 µg/mL (≈ 2.57 µM). Further, the IC80 with C. albicans ATCC90028 came out at 0.5 µg/mL (≈ 1.28 µM). Further, in the data set with C. glabrata ATCC48435, the IC80 was determined as 0.5 µg/mL (≈ 1.28 µM).
Consider `Cc1nc(-c2c(C)c(C#N)c3nc(C4CC4)oc3c2N2CC[C@H](N(C)C)C2)cs1` [Example 23, 2-Cyclopropyl-7-[(3S)-3-(dimethylamino)pyrrolidin-1-yl]-5-methyl-6-(2-methyl-1,3-thiazol-4-yl)-1,3-benzoxazole-4-carbonitrile], for which the melting point lay in the range of 167 to 168 °C. In addition, the IC80 in the data set on C. albicans ATCC MYA-573 was 1 µg/mL (≈ 2.45 µM). Further, the IC80 in the data set on C. albicans ATCC90028 turned out to be 1 µg/mL (≈ 2.45 µM). Moreover, the IC80 in the data set with C. glabrata ATCC48435 was found to be 0.5 µg/mL (≈ 1.23 µM).
Compound `Cc1c(-c2ccccc2)c(N2CC[C@H](N(C)C)C2)c2oc(-c3ccccn3)nc2c1C#N` [Example 35, 7-[(3S)-3-(Dimethylamino)pyrrolidin-1-yl]-5-methyl-6-phenyl-2-(pyridin-2-yl)-1,3-benzoxazole-4-carbonitrile] showed a melting point of 227 to 233 °C. Also, the IC80 with C. albicans ATCC MYA-573 worked out at 0.25 µg/mL (≈ 0.59 µM). In addition, the IC80 in the data set with C. albicans ATCC90028 worked out at 0.25 µg/mL (≈ 0.59 µM). For the same compound, in the data set with C. glabrata ATCC48435, the IC80 came out at 0.032 µg/mL (≈ 0.0756 µM).
With `Cc1c(-c2ccccc2)c(N2CC[C@H](N(C)C)C2)c2oc(C(=O)N(C)C)nc2c1C#N` [Example 40, 4-Cyano-7-[(3S)-3-(dimethylamino)pyrrolidin-1-yl]-N,N,5-trimethyl-6-phenyl-1,3-benzoxazole-2-carboxamide], the melting point lay in the range of 139 to 142 °C. The IC80 in the data set with C. albicans ATCC MYA-573 was 0.063 µg/mL (≈ 0.151 µM). In addition, the IC80 with C. albicans ATCC90028 came to 0.063 µg/mL (≈ 0.151 µM). Further, the IC80 with C. glabrata ATCC48435 came to 0.016 µg/mL (≈ 0.0383 µM).
Consider `CN[C@H]1CCN(c2c(-c3ccccc3)c(C)c(C#N)c3nc(C(=O)N(C)C)oc23)C1` [Example 40-1, 4-Cyano-N,N,5-trimethyl-7-[(3S)-3-(methylamino)pyrrolidin-1-yl]-6-phenyl-1,3-benzoxazole-2-carboxamide], for which the melting point lay in the range of 148 to 151 °C. Moreover, the IC80 in the data set on C. albicans ATCC MYA-573 is 0.25 µg/mL (≈ 0.62 µM). The IC80 in the data set on C. albicans ATCC90028 was determined as 0.25 µg/mL (≈ 0.62 µM). Moreover, in the data set with C. glabrata ATCC48435, the IC80 is 0.032 µg/mL (≈ 0.0793 µM).
For the compound `Cc1nc(-c2c(C)c(C#N)c3nc(C(=O)N(C)C)oc3c2N2CC[C@H](N(C)C)C2)cs1` [Example 51, 4-Cyano-7-[(3S)-3-(dimethylamino)pyrrolidin-1-yl]-N,N,5-trimethyl-6-(2-methyl-1,3-thiazol-4-yl)-1,3-benzoxazole-2-carboxamide], the melting point was 153 to 156 °C. The IC80 in the data set with C. albicans ATCC MYA-573 amounted to 1 µg/mL (≈ 2.28 µM). Also, in the data set with C. albicans ATCC90028, the IC80 stood at 1 µg/mL (≈ 2.28 µM). Also, in the data set on C. glabrata ATCC48435, the IC80 was 0.25 µg/mL (≈ 0.57 µM).
Regarding `Cc1c(-c2ccccc2)c(N2CC[C@H](N(C)C)C2)c2oc(N3CC(O)C3)nc2c1C#N` [Example 65, 7-[(3S)-3-(Dimethylamino)pyrrolidin-1-yl]-2-(3-hydroxyazetidin-1-yl)-5-methyl-6-phenyl-1,3-benzoxazole-4-carbonitrile], the melting point lay within 219 to 221 °C.
Same read-out and setting: in the case of `Cc1c(-c2ccccc2)c(N2CC[C@H](N(C)C)C2)c2oc(-c3cnn(C)c3)nc2c1C#N` [Example 74, 7-[(3S)-3-(Dimethylamino)pyrrolidin-1-yl]-5-methyl-2-(1-methyl-1H-pyrazol-4-yl)-6-phenyl-1,3-benzoxazole-4-carbonitrile] it was 214 to 222 °C.
With `Cc1c(-c2ccccc2)c(N2CC[C@H](N(C)C)C2)c2oc(N3CC(CO)C3)nc2c1C#N` [Example 98, 7-[(3S)-3-(Dimethylamino)pyrrolidin-1-yl]-2-[3-(hydroxymethyl)azetidin-1-yl]-5-methyl-6-phenyl-1,3-benzoxazole-4-carbonitrile], the melting point is 48 to 51 °C. For the same compound, the IC80 in the data set on C. albicans ATCC MYA-573 is 0.5 µg/mL (≈ 1.16 µM). Besides, the IC80 with C. albicans ATCC90028 was found to be 0.5 µg/mL (≈ 1.16 µM). For the same compound, the IC80 in the data set on C. glabrata ATCC48435 stood at 0.125 µg/mL (≈ 0.29 µM).
The compound `Cc1c(-c2ccccc2)c(N2CC[C@H](N(C)C)C2)c2oc(N3CC(C)(O)C3)nc2c1C#N` [Example 99, 7-[(3S)-3-(Dimethylamino)-1-pyrrolidinyl]-2-(3-hydroxy-3-methylazetidin-1-yl)-5-methyl-6-phenyl-1,3-benzoxazole-4-carbonitrile] yielded a melting point of 167 to 169 °C.
Same read-out and setting: in the case of `Cc1c(-c2ccccc2)c(N2CC[C@H](N(C)C)C2)c2oc(-c3ccccc3N)nc2c1C#N` [Example 109, 2-(2-Aminophenyl)7-[(3S)-3-(dimethylamino)pyrrolidin-1-yl]-5-methyl-6-phenyl-1,3-benzoxazole-4-carbonitrile] it was 259 to 263 °C; in that of `Cc1c(-c2ccccc2)c(N2CC[C@H](N(C)C)C2)c2oc(-c3ccccc3O)nc2c1C#N` [Example 110, 7-[(3S)-3-(Dimethylamino)pyrrolidin-1-yl]-2-(2-hydroxyphenyl)-5-methyl-6-phenyl-1,3-benzoxazole-4-carbonitrile], 159 to 162 °C.
Same read-out and setting: in the case of `Cc1c(-c2ccccc2)c(N2CC[C@H](N(C)C)C2)c2oc(N3CCOCC3)nc2c1C#N` [Example 130, 7-[(3S)-3-(Dimethylamino)pyrrolidin-1-yl]-5-methyl-2-morpholin-4-yl-6-phenyl-1,3-benzoxazole-4-carbonitrile] it was 215 to 217 °C; in that of `CCN[C@H]1CCN(c2c(-c3ccccc3)c(C)c(C#N)c3nc(C4CC4)oc23)C1` [Example 138, 2-Cyclopropyl-7-[(3S)-3-(ethylamino)pyrrolidin-1-yl]-5-methyl-6-phenyl-1,3-benzoxazole-4-carbonitrile], 209 to 211 °C.
`Cc1c(-c2cccc(CF)c2)c(N2CC[C@H](N(C)C)C2)c2oc(C3CC3)nc2c1C#N` [Example 144-10, 2-Cyclopropyl-7-[(3S)-3-(dimethylamino)pyrrolidin-1-yl]-6-[3-(fluoromethyl)phenyl]-5-methyl-1,3-benzoxazole-4-carbonitrile] gave a melting point of 104 to 107 °C.
The compound `Cc1c(-c2ccccc2N)c(N2CC[C@H](N(C)C)C2)c2oc(C3CC3)nc2c1C#N` [Example 144-13, 6-(2-Aminophenyl)-2-cyclopropyl-7-[(3S)-3-(dimethylamino)pyrrolidin-1-yl]-5-methyl-1,3-benzoxazole-4-carbonitrile] returned a melting point of 191 to 194 °C. For the same compound, in the data set with C. albicans ATCC MYA-573, the IC80 amounted to 1 µg/mL (≈ 2.49 µM). Moreover, in the data set with C. albicans ATCC90028, the IC80 came out at 1 µg/mL (≈ 2.49 µM). The IC80 with C. glabrata ATCC48435 is 0.5 µg/mL (≈ 1.25 µM).
`Cc1c(-c2ccccc2)c(C2=CCNC2)c2oc(C3CC3)nc2c1C#N` [Example 153, 2-Cyclopropyl-7-(2,5-dihydro-1H-pyrrol-3-yl)-5-methyl-6-phenyl-1,3-benzoxazole-4-carbonitrile] registered a melting point of 172 to 174 °C.
Compound `CN[C@@]1(C)CCN(c2c(-c3cccc(F)c3)c(C)c(C#N)c3nc(C(=O)N(C)C)oc23)C1` [Example 157, 4-Cyano-6-(3-fluorophenyl)-N,N,5-trimethyl-7-[(3S)-3-methyl-3-(methylamino)pyrrolidin-1-yl]-1,3-benzoxazole-2-carboxamide] yielded a melting point of 178 to 180 °C.
Same read-out and setting: in the case of `Cc1c(-c2ccccc2)c(N2CC[C@](C)(N)C2)c2oc(C(=O)N(C)C)nc2c1C#N` [Example 160, 7-[(3S)-3-Amino-3-methylpyrrolidin-1-yl]-4-cyano-N,N,5-trimethyl-6-phenyl-1,3-benzoxazole-2-carboxamide] it was 202 to 204 °C.
